{"source": "paper PMC10410761", "about": "(Proceedings of the National Academy of Sciences of the …, 2023)", "key": {"NaV1.7 [1]": {"target": "NaV1.7 (Rattus norvegicus, UniProt O08562)", "sequence (O08562 whole entry)": "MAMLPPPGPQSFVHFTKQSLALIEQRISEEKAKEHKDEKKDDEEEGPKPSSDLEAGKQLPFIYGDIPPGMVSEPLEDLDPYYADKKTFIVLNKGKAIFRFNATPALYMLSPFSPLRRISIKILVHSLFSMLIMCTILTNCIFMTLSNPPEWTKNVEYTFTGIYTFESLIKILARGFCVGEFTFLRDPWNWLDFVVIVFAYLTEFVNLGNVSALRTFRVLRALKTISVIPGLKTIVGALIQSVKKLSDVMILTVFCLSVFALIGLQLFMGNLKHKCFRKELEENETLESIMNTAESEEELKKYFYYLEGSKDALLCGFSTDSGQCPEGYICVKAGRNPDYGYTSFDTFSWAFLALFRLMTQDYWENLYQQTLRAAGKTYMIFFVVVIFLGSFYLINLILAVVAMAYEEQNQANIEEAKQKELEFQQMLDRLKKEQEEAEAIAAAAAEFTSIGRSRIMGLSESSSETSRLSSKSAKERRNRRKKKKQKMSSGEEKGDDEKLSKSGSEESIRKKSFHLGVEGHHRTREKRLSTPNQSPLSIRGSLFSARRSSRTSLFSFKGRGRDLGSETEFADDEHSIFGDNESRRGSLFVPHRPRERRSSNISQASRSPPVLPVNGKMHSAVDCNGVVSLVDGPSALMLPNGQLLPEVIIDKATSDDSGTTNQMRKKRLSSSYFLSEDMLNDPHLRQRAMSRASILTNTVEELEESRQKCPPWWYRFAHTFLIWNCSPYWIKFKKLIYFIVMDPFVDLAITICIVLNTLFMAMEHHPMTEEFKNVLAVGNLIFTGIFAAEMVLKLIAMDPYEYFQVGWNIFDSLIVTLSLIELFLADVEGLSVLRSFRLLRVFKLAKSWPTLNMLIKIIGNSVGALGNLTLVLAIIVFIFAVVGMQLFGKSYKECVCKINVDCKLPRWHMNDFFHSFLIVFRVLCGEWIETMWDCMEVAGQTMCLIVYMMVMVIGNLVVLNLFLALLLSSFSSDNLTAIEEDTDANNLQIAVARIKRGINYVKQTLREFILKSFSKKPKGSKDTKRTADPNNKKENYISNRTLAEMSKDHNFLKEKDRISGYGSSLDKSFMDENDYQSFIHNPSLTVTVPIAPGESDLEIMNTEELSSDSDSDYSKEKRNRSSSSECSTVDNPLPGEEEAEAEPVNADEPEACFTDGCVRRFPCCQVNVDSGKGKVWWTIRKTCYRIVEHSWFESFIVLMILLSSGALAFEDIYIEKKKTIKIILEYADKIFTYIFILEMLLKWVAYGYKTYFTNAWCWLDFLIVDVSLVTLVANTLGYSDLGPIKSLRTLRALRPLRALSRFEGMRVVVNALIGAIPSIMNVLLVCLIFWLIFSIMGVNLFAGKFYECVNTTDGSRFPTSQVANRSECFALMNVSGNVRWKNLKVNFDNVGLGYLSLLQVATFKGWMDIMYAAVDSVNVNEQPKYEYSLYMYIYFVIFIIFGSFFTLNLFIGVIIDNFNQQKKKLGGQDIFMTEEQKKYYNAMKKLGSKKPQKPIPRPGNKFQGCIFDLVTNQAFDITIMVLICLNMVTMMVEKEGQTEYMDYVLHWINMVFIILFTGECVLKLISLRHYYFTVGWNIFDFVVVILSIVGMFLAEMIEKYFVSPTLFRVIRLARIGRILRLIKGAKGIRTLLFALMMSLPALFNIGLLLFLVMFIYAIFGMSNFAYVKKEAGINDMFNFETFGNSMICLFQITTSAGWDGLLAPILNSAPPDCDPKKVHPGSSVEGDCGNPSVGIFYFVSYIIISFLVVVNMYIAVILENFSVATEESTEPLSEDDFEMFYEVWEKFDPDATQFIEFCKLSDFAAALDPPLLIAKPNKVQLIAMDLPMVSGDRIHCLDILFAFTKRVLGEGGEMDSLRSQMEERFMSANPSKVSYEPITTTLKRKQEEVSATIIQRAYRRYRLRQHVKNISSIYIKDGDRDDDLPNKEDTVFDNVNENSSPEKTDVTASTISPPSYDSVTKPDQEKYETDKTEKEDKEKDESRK", "test": "Whole-cell voltage clamp, sodium currents in rat DRG neurons", "format": "cell-based", "details": "Pitstop2 20 µM, vs AAV-SCR control"}, "NaV1.7 [2]": {"test_system": "NaV1.7", "test": "Whole-cell voltage clamp, sodium currents in rat DRG neurons", "format": "cell-based", "details": "Pitstop2 20 µM, 30 min before recording, rat DRG neurons"}}, "data": [{"smiles": "O=C1NC(=NS(=O)(=O)c2cccc3ccccc23)S/C1=C\\c1ccc(Br)cc1", "note": "[Pitstop2]", "values": [{"measurement": "Inhibition of NaV1.7 current in AAV-NaV1.7-CRS transfected DRG neurons", "setting": "NaV1.7 [1]", "value": "rescued"}, {"measurement": "Decrease of sodium currents imposed by Myr-TAT-NaV1.7-CRS", "setting": "NaV1.7 [2]", "value": "rescued"}]}]}
